Series [1] has as its target Rat2 fibroblasts stably transformed with v-Src/Hu c-Src fusion gene (Homo sapiens, UniProt P12931, cells depend on it, form not given). In words: Anchorage Independent Src-transformed Fibroblast Proliferation Assay. The series is classed as cell-based, Rat. To be noted: suspension growth, MTS reagent on Day 5; read-out: anch-indep src-tx fib IC50. The method, then:
Anchorage Independent Src-transformed Fibroblast Proliferation Assay
Rat2 fibroblasts stably transformed with a plasmid containing a CMV promotor controlled v-Src/Hu c-Src fusion gene in which the catalytic domain of human c-Src was inserted in place of the v-Src catalytic domain in the v-Src gene are used for the measurement of src dependent suspension growth. […] Multiple entries for a given compound indicate that it was tested multiple times.
In general terms: Formazan colour is commonly taken as a measure of viable cells.

These results are taken from patent publication US20020026052A1, “3-cyanoquinolines, 3-cyano-1,6-naphthyridines, and 3-cyano-1,7-naphthyridines as protein kinase inhibitors” (American Home Products Corporation, priority 2000, published 2002).

Several values for one entry are separate records, joined by “and”; a condition that tells them apart may be missing. Identical values can stand only once.

Rat2 fibroblasts stably transformed with v-Src/Hu c-Src fusion gene, sequence (P12931 whole entry, change not shown, the tested form may be a part): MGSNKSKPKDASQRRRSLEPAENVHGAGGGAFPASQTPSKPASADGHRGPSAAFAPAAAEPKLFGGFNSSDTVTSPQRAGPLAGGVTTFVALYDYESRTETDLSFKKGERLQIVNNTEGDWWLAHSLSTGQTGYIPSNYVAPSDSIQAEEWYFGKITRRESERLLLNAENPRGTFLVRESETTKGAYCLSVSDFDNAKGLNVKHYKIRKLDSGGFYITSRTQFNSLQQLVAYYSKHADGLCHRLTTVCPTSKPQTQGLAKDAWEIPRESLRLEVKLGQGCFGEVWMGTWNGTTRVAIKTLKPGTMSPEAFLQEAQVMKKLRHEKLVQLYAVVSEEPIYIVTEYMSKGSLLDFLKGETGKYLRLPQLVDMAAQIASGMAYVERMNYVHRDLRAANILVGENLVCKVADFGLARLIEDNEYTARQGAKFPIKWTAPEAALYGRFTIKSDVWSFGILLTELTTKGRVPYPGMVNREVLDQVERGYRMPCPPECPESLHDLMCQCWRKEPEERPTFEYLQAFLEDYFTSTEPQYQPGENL

By melting point is commonly meant the temperature of the solid-liquid transition. Regarding `COc1cc(Nc2c(C#N)cnc3cc(-c4ccc(CNCCc5ccccn5)cc4)ccc23)c(Cl)cc1Cl` [Example 229, 4-(2,4-Dichloro-5-methoxyanilino)-7-[4-({[2-(2-pyridinyl)ethyl]amino}-methyl)phenyl]-3-quinolinecarbonitrile], the melting point was in the range of 256 to 258 °C. Besides, in series [1], the GI50 is 0.45 µM.
Regarding `N#Cc1cnc2cc(-c3ccc(CN4CCOCC4)o3)ccc2c1Nc1ccc(Cl)cc1Cl` [Example 13, 4-(2,4-Dichloroanilino)-7-[5-(4-morpholinylmethyl)-2-furyl]-3-quinolinecarbonitrile], the melting point lay within 118 to 120 °C. Further, the GI50 in series [1] was 1.51 µM and 1.59 µM.
For the molecule `COc1cc(Nc2c(C#N)cnc3cc(-c4ccc(CN5CCOCC5)cc4)ccc23)c(Cl)cc1F` [Example 235, 4-(2-Chloro-4-fluoro-5-methoxyanilino)-7-[4-(4-morpholinylmethyl)phenyl]-3-quinolinecarbonitrile], the melting point is 174 to 178 °C. The GI50 in series [1] worked out at 0.79 µM.
As for `COc1cc(Nc2c(C#N)cnc3cc(-c4ccc(CN5CCSCC5)cc4)ccc23)c(Cl)cc1Cl` [Example 153, 4-[(2,4-Dichloro-5-methoxyphenyl)amino]-7-[4-(4-thiomorpholinylmethyl)phenyl]-3-quinolinecarbonitrile], the melting point was in the range of 216 to 219 °C. Further, the GI50 in series [1] was 2.8 µM and 2.7 µM.
`CCN1CCN(Cc2cc(-c3ccc4c(Nc5ccc(Cl)cc5Cl)c(C#N)cnc4c3)cs2)CC1` [Example 10, 4-(2,4-Dichloroanilino)-7-{5-[(4-ethyl-1-piperazinyl)methyl]-3-thienyl}-3-quinolinecarbonitrile]: the melting point lay in the range of 182 to 184 °C. In addition, the GI50 in series [1] worked out at 0.9 µM.
Molecule `COc1cc(Nc2c(C#N)cnc3cc(-c4csc(CN5CCOCC5)c4)c(OC)cc23)c(Cl)cc1Cl` [Example 36, 4-(2,4-Dichloro-5-methoxyanilino)-6-methoxy-7-[5-(4-morpholinylmethyl)-3-thienyl]-3-quinolinecarbonitrile] registered a melting point of 148 to 150 °C. In series [1], the GI50 was 0.16 µM and 0.2 µM.
In the case of `COc1cc(Nc2c(C#N)cnc3cc(-c4ccc(CNCCS(C)(=O)=O)o4)ccc23)c(Cl)cc1Cl` [Example 77, 4-(2,4-Dichloro-5-methoxyanilino)-7-[5-({[2-(methylsulfonyl)ethyl]amino}methyl)-2-furyl]-3-quinolinecarbonitrile], the melting point lay in the range of 171 to 174 °C. Also, the GI50 in series [1] is 0.42 µM.
The matching figures for `COc1cc(Nc2c(C#N)cnc3cc(-c4ccc(CNCCS(C)(=O)=O)n4C)ccc23)c(Cl)cc1Cl` [Example 73, 4-(2,4-dichloro-5-methoxyanilino)-7-[1-methyl-5-({[2-(methylsulfonyl)ethyl]amino}-methyl)-1H-pyrrol-2-yl]-3-quinolinecarbonitrile]: 160 to 164 °C and > 10 µM.
For `COc1cc(Nc2c(C#N)cnc3cc(-c4ccc(C=O)n4C)ccc23)c(Cl)cc1Cl` [Example 69, 4-(2,4-Dichloro-5-methoxyanilino)-7-(5-formyl-1-methyl-1H-pyrrol-2-yl)-3-quinolinecarbonitrile] the same measures were 200 °C (dec.) and > 10 µM.
`N#Cc1cnc2cc(-c3ccc(CCN4CCOCC4)s3)ccc2c1Nc1ccc(Cl)cc1Cl` [Example 9, 4-(2,4-Dichloroanilino)-7-{5-[2-(4-morpholinyl)ethyl]-2-thienyl}-3-quinoline-carbonitrile] returned a melting point of 168 to 169 °C. The GI50 in series [1] is 2.7 µM.
The matching figures for `COc1cc(Nc2c(C#N)cnc3cc(-c4cc(CN5CCOCC5)c(CN5CCOCC5)s4)c(OC)cc23)c(Cl)cc1Cl` [Example 82, 7-[4,5-Bis(4-morpholinylmethyl)-2-thienyl]-4-(2,4-dichloro-5-methoxyanilino)-6-methoxy-3-quinolinecarbonitrile]: 120 to 124 °C and 0.05 µM.
Regarding `CCOC(=O)C1CCCN(Cc2ccc(-c3ccc4c(Nc5cc(OC)c(Cl)cc5Cl)c(C#N)cnc4c3)cc2)C1` (centres unmarked) [Example 148, Ethyl 1-(4-{3-cyano-4-[(2,4-dichloro-5-methoxyphenyl)amino]-7-quinolinyl}benzyl)-3-piperidinecarboxylate], the melting point was 67 to 70 °C. In addition, the GI50 in series [1] stood at 2.1 µM.
The matching figures for `COc1cc(Nc2c(C#N)cnc3cc(-c4ccc(C5OCCO5)o4)ccc23)c(Cl)cc1Cl` [Example 5, 4-(2,4-dichloro-5-methoxyanilino)-7-[5-(1,3-dioxolan-2-yl)-2-furyl]-3-quinolinecarbonitrile]: 224 to 229 °C and 0.2 µM.
The matching figures for `COc1cc(Nc2c(C#N)cnc3cc(-c4cncn4CCN4CCOCC4)ccc23)c(Cl)cc1Cl` [Example 64, 4-(2,4-Dichloro-5-methoxyanilino)-7-{1-[2-(4-morpholinyl)ethyl]-lH-imidazol-5-yl}-3-quinolinecarbonitrile]: 150 °C (dec.) and > 10 µM.
For `COc1ccc(-c2ccc3c(Nc4cc(OC)c(Cl)cc4Cl)c(C#N)cnc3c2)cc1` [Example 194, 4-(2,4-Dichloro-5-methoxyanilino)-7-(4-methoxyphenyl)-3-quinolinecarbonitrile] the same measures were 210 to 212 °C and > 10 µM.
Take `COc1cc(Nc2c(C#N)cnc3cc(C#CCN4CCOCC4)c(OC)cc23)c(Cl)cc1Cl` [Example 166, 4-(2,4-Dichloro-5-methoxyanilino)-6-methoxy-7-[3-(4-morpholinyl)-1-propynyl]-3-quinolinecarbonitrile]: the melting point lay within 105 to 108 °C. Besides, the GI50 in series [1] was 0.72 µM.
For `CCOC(=O)C1CCCCN1Cc1ccc(-c2ccc3c(Nc4cc(OC)c(Cl)cc4Cl)c(C#N)cnc3c2)cc1` (centres unmarked) [Example 145, Ethyl 1-{4-[3-cyano-4-(2,4-dichloro-5-methoxyanilino)-7-quinolinyl]benzyl}-2-piperidinecarboxylate] the same measures were 78 to 80 °C and > 10 µM.
The matching figures for `COc1cc(Nc2c(C#N)cnc3cc(-c4ccc(CN5CCCC(C(=O)O)C5)cc4)ccc23)c(Cl)cc1Cl` (centres unmarked) [Example 149, 1-(4-{3-Cyano-4-[(2,4-dichloro-5-methoxyphenyl)amino]-7-quinolinyl}benzyl)-3-piperidinecarboxylic acid]: 235 °C (dec.) and 2.5 µM.
The matching figures for `COc1cc(Nc2c(C#N)cnc3cc(-c4cccc5ccccc45)ccc23)c(Cl)cc1Cl` [Example 116, 4-(2,4-Dichloro-5-methoxyanilino)-7-(1-naphthyl)-3-quinolinecarbonitrile]: 192 to 193 °C and > 10 µM.
The molecule `N#Cc1cnc2cc(C#CCCCN3CCOCC3)ccc2c1Nc1ccc(Cl)cc1Cl` [Example 11, 4-(2,4-Dichloroanilino)-7-[5-(4-morpholinyl)-1-pentynyl]-3-quinolinecarbonitrile] gave a melting point of 131 to 133 °C. In addition, the GI50 in series [1] is > 10 µM.
Molecule `COc1cc(Nc2c(C#N)cnc3cc(C#Cc4ccc(C)cc4)ccc23)c(Cl)cc1Cl` [Example 141, 4-(2,4-Dichloro-5-methoxyanilino)-7-[2-(4-methylphenyl)ethynyl]-3-quinolinecarbonitrile] showed a melting point of 223 to 225 °C. Besides, the GI50 in series [1] was > 10 µM.
The matching figures for `COc1cc(Nc2c(C#N)cnc3cc(-c4ccc(CN5CCN(C)CC5)n4C)ccc23)c(Cl)cc1Cl` [Example 71, 4-(2,4-Dichloro-5-methoxyanilino)-7-{1-methyl-5-[(4-methyl-1-piperazinyl)methyl]-1H-pyrrol-2-yl}-3-quinolinecarbonitrile]: 200 °C (dec.) and 6.8 µM.
For `N#Cc1cnc2cc(-c3cc(CN4CCOCC4)c(CN4CCOCC4)s3)ccc2c1Nc1ccc(Cl)cc1Cl` [Example 17] the same measures were 118 to 125 °C and 0.31 µM.
The molecule `COc1cc(Nc2c(C#N)cnc3cc(-c4ccc(CNCCS(C)(=O)=O)cc4)ccc23)c(Cl)cc1Cl` [Example 88, 4-(2,4-dichloro-5-methoxyanilino)-7-[4-({[2-(methylsulfonyl)ethyl]amino}methyl)phenyl]-3-quinolinecarbonitrile] had a melting point of 245 to 246 °C. Besides, in series [1], the GI50 is 0.85 µM.
The matching figures for `CCN1CCN(c2ccc(-c3ccc4c(Nc5cc(OC)c(Cl)cc5Cl)c(C#N)cnc4c3)nc2)CC1` [Example 179, 4-[(2,4-Dichloro-5-methoxyphenyl)amino]-7-[5-(4-ethyl-1-piperazinyl)-2-pyridinyl]-3-quinolinecarbonitrile]: 232 to 234 °C and 0.27 µM.
For `COc1cc(Nc2c(C#N)cnc3cc(-c4ccc(CO)n4C)ccc23)c(Cl)cc1Cl` [Example 162, 4-(2,4-Dichloro-5-methoxyanilino)-7-[5-(hydroxymethyl)-1-methyl-lH-pyrrol-2-yl]-3-quinolinecarbonitrile] the same measures were 175 °C (dec.) and > 10 µM.
For `COc1cc(Nc2c(C#N)cnc3cc(-c4cccc(NC(C)=O)c4)ccc23)c(Cl)cc1Cl` [Example 118, N-{3-[3-Cyano-4-(2,4-dichloro-5-methoxyanilino)-7-quinolinyl]phenyl}acetamide] the same measures were 262 to 263 °C and 3 µM.
Take `COc1cc(Nc2c(C#N)cnc3cc(C#CCO)ccc23)c(Cl)cc1Cl` [Example 143, 4-(2,4-Dichloro-5-methoxyanilino)-7-(3-hydroxy-1-propynyl)-3-quinolinecarbonitrile]: the melting point is 245 °C (dec.). In addition, the GI50 in series [1] was > 10 µM.
